In patent US9856279B2 (AGIOS PHARMACEUTICALS, INC, priority 2011, dated 2018):

Legend:
[1] = system: U87MG cells; assay: Cellular assay for IDH1m inhibitors: inhibition of 2-HG production (LC-MS, 48 hours) in U87MG cells; assay type: cell-based; details: Homo sapiens, U-87 MG, inhibition of 2-HG production, U87R132H cells; read-out: U87R132H IC50
In short: (§1)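 Read-out: 2-HG in culture medium by LC-MS after 48 h compound exposure; IC50 = 50% reduction vs DMSO control. Cells plated 5000/well in DMEM/10% FBS, 37 °C, 5% CO2; DMSO 0.2% final.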

[2] = molecular target: IDH1 R132H (Homo sapiens, UniProt O75874, R132H); assay: Assay for IDH1 R132H inhibitors (NADPH/aKG, resazurin detection); assay type: biochemical; details: enzyme assay of Example 12; read-out: IDH1R132H IC50
In short: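 Read-out is resorufin fluorescence (Ex544/Em590) 5 min after adding a 30 μM resazurin detection mix. Before that, mutant enzyme (0.2 μg/ml in its mix) ran 50 min at room temperature with compound, 8 uM NADPH and 2 mM aKG (mix levels) in Tris pH 7.5 with NaCl, MgCl2, BSA.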

[3] = system: HT1080 cells; assay: Cellular assay for IDH1m inhibitors: inhibition of 2-HG production (LC-MS, 48 hours) in HT1080 cells; assay type: cell-based; details: Homo sapiens, HT-1080; inhibition of 2-HG production, HT1080 cells; read-out: HT1080 IC50
In short: as §1

Chain of IDH1 R132H (O75874 whole entry R132H): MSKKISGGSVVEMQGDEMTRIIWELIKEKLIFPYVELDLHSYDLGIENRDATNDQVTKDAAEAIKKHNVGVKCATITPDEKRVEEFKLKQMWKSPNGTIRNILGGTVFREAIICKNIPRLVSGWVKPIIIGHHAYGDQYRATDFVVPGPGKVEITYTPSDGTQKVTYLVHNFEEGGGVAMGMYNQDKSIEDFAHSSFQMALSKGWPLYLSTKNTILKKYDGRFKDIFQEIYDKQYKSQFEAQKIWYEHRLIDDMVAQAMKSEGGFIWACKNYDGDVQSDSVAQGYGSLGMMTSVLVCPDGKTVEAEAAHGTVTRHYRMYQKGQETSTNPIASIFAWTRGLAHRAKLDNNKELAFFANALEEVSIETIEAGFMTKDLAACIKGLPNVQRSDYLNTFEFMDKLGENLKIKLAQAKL

Row | SMILES | IC50 [1] | IC50 [2] | IC50 [3]
1 | COCCC(=O)N1CCN(c2nc(C3CC3)c(-c3cccc(NC(=O)C(F)F)c3)cc2C#N)C[C@H]1C [Compound 432, (R)—N-(3-(5-cyano-2-cyclopropyl-6-(4-(3-methoxypropanoyl)-3-methylpiperazin-1-yl)pyridin-3-yl)phenyl)-2,2-difluoroacetamide] | 1000 to 10000 nM | 500 to 1000 nM | 1000 to 10000 nM
2 | C=CC(=O)Nc1ccc(C(C)Oc2cc(C#N)c(N3CCN(C(=O)CCOC)[C@H](C)C3)nc2C2CC2)cc1 (stereo partly drawn) [Compound 389, N-(4-(1-(5-cyano-2-cyclopropyl-6-((R)-4-(3-methoxypropanoyl)-3-methylpiperazin-1-yl)pyridin-3-yloxy)ethyl)phenyl)acrylamide] | < 500 nM | < 500 nM | < 500 nM
3 | COCCC(=O)N1CCN(c2nc(C3CC3)c(-c3ccccc3C#N)cc2C#N)C[C@H]1C(C)C [Compound 274, (R)-5-(2-cyanophenyl)-6-cyclopropyl-2-(3-isopropyl-4-(3-methoxypropanoyl)piperazin-1-yl)nicotinonitrile] | 1000 to 10000 nM | 500 to 1000 nM | 1000 to 10000 nM
4 | C=Cc1cc(Nc2cc(C#N)c(N3CCN(C(=O)C[C@@H]4CCO4)[C@H](C4CC4)C3)nc2C2CC2)ccn1 [Compound 774, 6-cyclopropyl-2-((R)-3-cyclopropyl-4-(2-((S)-oxetan-2-yl)acetyl)piperazin-1-yl)-5-((2-vinylpyridin-4-yl)amino)nicotinonitrile] | < 500 nM | < 500 nM | < 500 nM
5 | C=Cc1cc(-c2cc(C#N)c(N3CCN(C(=O)CCO)[C@H](C)C3)nc2C2CC2)ncn1 [Compound 621, (R)-6-cyclopropyl-2-(4-(3-hydroxypropanoyl)-3-methylpiperazin-1-yl)-5-(6-vinylpyrimidin-4-yl)nicotinonitrile] | 500 to 1000 nM | < 500 nM | < 500 nM
6 | C=CC(=O)N1CCC=C(c2c(C3CC3)nc(N3CCN(C(=O)CCOC)[C@H](C4CC4)C3)c(C#N)c2C)C1 [Compound 745, (R)-5-(1-acryloyl-1,2,5,6-tetrahydropyridin-3-yl)-6-cyclopropyl-2-(3-cyclopropyl-4-(3-methoxypropanoyl)piperazin-1-yl)-4-methylnicotinonitrile] | < 500 nM | < 500 nM | < 500 nM
7 | C=Cc1cnnc(-c2c(C3CC3)nc(N3CCN(C(=O)C[C@H]4CCO4)[C@H](C4CC4)C3)c(C#N)c2C)c1 [Compound 768, 6-cyclopropyl-2-((R)-3-cyclopropyl-4-(2-((R)-oxetan-2-yl)acetyl)piperazin-1-yl)-4-methyl-5-(5-vinylpyridazin-3-yl)nicotinonitrile] | < 500 nM | < 500 nM | < 500 nM
8 | C=Cc1cc(-c2cc(C#N)c(N3CCN(C(=O)CCO)[C@H](C4CC4)C3)nc2C2CC2)c2cnn(C)c2n1 [Compound 744, (R)-6-cyclopropyl-2-(3-cyclopropyl-4-(3-hydroxypropanoyl)piperazin-1-yl)-5-(1-methyl-6-vinyl-1H-pyrazolo[3,4-b]pyridin-4-yl)nicotinonitrile] | < 500 nM | < 500 nM | < 500 nM
9 | COCCC(=O)N1CCN(c2nc(C3CC3)c(-c3cccc(NS(C)(=O)=O)c3)c(C)c2C#N)C[C@H]1C [Compound 350, (R)—N-(3-{5-cyano-2-cyclopropyl-6-[4-(3-methoxy-propionyl)-3-methyl-piperazin-1-yl]-4-methyl-pyridin-3-yl}-phenyl)-methane sulfonamide] | 500 to 1000 nM | < 500 nM | 1000 to 10000 nM
10 | COCCC(=O)N1CCN(c2nc(C3CC3)c(-c3ccccc3OC)cc2C#N)C[C@H]1C(C)C [Compound 275, (R)-6-cyclopropyl-2-(3-isopropyl-4-(3-methoxypropanoyl)piperazin-1-yl)-5-(2-methoxyphenyl)nicotinonitrile] | 1000 to 10000 nM | < 500 nM | 1000 to 10000 nM
11 | C=Cc1cnnc(-c2c(C3CC3)nc(N3CCN(C(=O)OC(C)(C)C)[C@H](C4CC4)C3)c(C#N)c2C)c1 [Compound 771, (R)-tert-butyl 4-(3-cyano-6-cyclopropyl-4-methyl-5-(5-vinylpyridazin-3-yl)pyridin-2-yl)-2-cyclopropylpiperazine-1-carboxylate] | < 500 nM | < 500 nM | < 500 nM
12 | N#Cc1cc(-c2ccnc(Br)c2)c(C2CC2)nc1N1CCN(C(=O)C2CC2)[C@H](C2CC2)C1 [Compound 508, (R)-2′-bromo-6-(4-(cyclopropanecarbonyl)-3-cyclopropylpiperazin-1-yl)-2-cyclopropyl-3,4′-bipyridine-5-carbonitrile] | < 500 nM | < 500 nM | < 500 nM
13 | C=Cc1ccc2ccc(-c3cc(C#N)c(N4CCN(C(=O)C5CC5)[C@H](C5CC5)C4)nc3C3CC3)cc2n1 [Compound 709, (R)-2-(4-(cyclopropanecarbonyl)-3-cyclopropylpiperazin-1-yl)-6-cyclopropyl-5-(2-vinylquinolin-7-yl) nicotinonitrile] | < 500 nM | < 500 nM | < 500 nM
14 | C=Cc1cc(-c2cc(C#N)c(N3CCN(C(=O)CCCOP(=O)(OC(C)(C)C)OC(C)(C)C)[C@H](C4CC4)C3)nc2C2CC2)ccn1 [Compound 804, (R)-di-tert-butyl 4-(4-(5-cyano-2-cyclopropyl-2′-vinyl-3,4′-bipyridin-6-yl)-2-cyclopropylpiperazin-1-yl)-4-oxobutyl phosphate] | 500 to 1000 nM | < 500 nM | < 500 nM
15 | C=Cc1ccnc(Nc2cc(C#N)c(N3CCN(C(=O)CCC4CCO4)[C@H](C4CC4)C3)nc2C2CC2)c1 (stereo partly drawn) [Compound 812, 6-cyclopropyl-2-((3R)-3-cyclopropyl-4-(3-(oxetan-2-yl)propanoyl)piperazin-1-yl)-5-((4-vinylpyridin-2-yl)amino)nicotinonitrile] | < 500 nM | < 500 nM | < 500 nM
16 | COCCC(=O)N1CCN(c2nc(C3CC3)c(-c3ccc(NC(C)=O)cc3)c(C)c2C#N)C[C@H]1C [Compound 326, (R)—N-(4-{5-cyano-2-cyclopropyl-6-[4-(3-methoxy-propionyl)-3-methyl-piperazin-1-yl]-4-methyl-pyridin-3-yl}-phenyl)-acetamide] | < 500 nM | < 500 nM | 500 to 1000 nM
17 | C#Cc1ccnc(Nc2cc(C#N)c(N3CCN(C(=O)COC)[C@H](C4CC4)C3)nc2C2CC2)c1 [Compound 750, (R)-6-cyclopropyl-2-(3-cyclopropyl-4-(2-methoxyacetyl)piperazin-1-yl)-5-(4-ethynylpyridin-2-ylamino)nicotinonitrile] | < 500 nM | < 500 nM | < 500 nM
18 | C=C(F)C(=O)N(C)c1cccc(-c2cc(C#N)c(N3CCN(C(=O)CCOC)[C@H](C)C3)nc2C2CC2)c1 [Compound 453, (R)—N-(3-(5-cyano-2-cyclopropyl-6-(4-(3-methoxypropanoyl)-3-methylpiperazin-1-yl)pyridin-3-yl)phenyl)-2-fluoro-N-methylacrylamide] | < 500 nM | < 500 nM | 500 to 1000 nM
19 | COCCC(=O)N1CCN(c2nc(C3CC3)c(Nc3ccnc(Cl)c3)cc2C#N)C[C@H]1C [Compound 643, (R)-5-((2-chloropyridin-4-yl)amino)-6-cyclopropyl-2-(4-(3-methoxypropanoyl)-3-methylpiperazin-1-yl)nicotinonitrile] | 500 to 1000 nM | < 500 nM | < 500 nM
20 | COCCC(=O)N1CCN(c2nc(C3CC3)c(-c3cccc4cnccc34)cc2C#N)C[C@H]1C1CC1 [Compound 409, (R)-6-cyclopropyl-2-(3-cyclopropyl-4-(3-methoxypropanoyl)piperazin-1-yl)-5-(isoquinolin-5-yl)nicotinonitrile] | < 500 nM | < 500 nM | < 500 nM
21 | C=Cc1cc(-c2cc(C#N)c(N3CCN(C(=O)CCOC)[C@H](C)C3)nc2C2CC2)cnn1 [Compound 615, (R)-6-cyclopropyl-2-(4-(3-methoxypropanoyl)-3-methylpiperazin-1-yl)-5-(6-vinylpyridazin-4-yl)nicotinonitrile] | < 500 nM | < 500 nM | < 500 nM
22 | C=Cc1cc(-c2c(C3CC3)nc(N3CCN(C(=O)CCC4CCO4)[C@H](C4CC4)C3)c(C#N)c2C)ccn1 (stereo partly drawn) [Compound 803, 2-cyclopropyl-6-((3R)-3-cyclopropyl-4-(3-(oxetan-2-yl)propanoyl)piperazin-1-yl)-4-methyl-2′-vinyl-[3,4′-bipyridine]-5-carbonitrile] | < 500 nM | < 500 nM | < 500 nM
23 | C=Cc1cc(-c2cc(C#N)c(N3CCN(C(=O)CCOC)[C@H](C)C3)nc2C2CC2)c2ccncc2n1 [Compound 580, (R)-6-cyclopropyl-2-(4-(3-methoxypropanoyl)-3-methylpiperazin-1-yl)-5-(2-vinyl-1,7-naphthyridin-4-yl)nicotinonitrile] | < 500 nM | < 500 nM | < 500 nM
24 | C=Cc1cc(Nc2c(C3CC3)nc(N3CCN(C(=O)CCO)[C@H](C(C)C)C3)c(C#N)c2C)ccn1 [Compound 799, (R)-6-cyclopropyl-2-(4-(3-hydroxypropanoyl)-3-isopropylpiperazin-1-yl)-4-methyl-5-((2-vinylpyridin-4-yl)amino)nicotinonitrile] | < 500 nM | < 500 nM | < 500 nM
